Results on one compound are retold here after patent US8575320B2, “Compositions and methods for separating, characterizing and administering soluble selenoglycoproteins” (Alltech, Inc., priority 2010, dated 2013).

This assay relates to gene expression in chicken breast muscle tissue. As to the kind of experiment: Microarray gene expression profile in breast muscle of broilers fed different selenium sources. In kind it is in vivo. The note with it: P<0.05, FC>1.2 vs Control, 0.3 ppm Se diet, 18 days. The protocol:
Breast muscle tissue from chickens referenced in Example 3 was used to assess similarities and differences in gene expression profiles elicited by the following dietary treatments: Treatment 1-basal (Control); Treatment 2-Control+0.3 ppm sodium-selenite (SS); Treatment 3-Control+0.3 ppm SEL-PLEX; Treatment 6-0.3 ppm SGP fraction extracted from SEL-PLEX (SP) at pH 4.0. […] As such, experiments were conducted during development of embodiments of the invention in order to determine if animals receiving SGP fraction pH 4.0 experienced similar in vivo effects (e.g., gene expression changes) observed in SP fed animals, or whether significant, measurable differences existed.
At 18-days of age, five chickens from each treatment group (described above and in Tables 3 and 4) were randomly selected and euthanized by argon asphyxiation, followed by cervical dislocation. Samples of breast muscle tissue (1 gram) were rapidly removed and flash frozen in liquid nitrogen. Samples were stored at −80° C. until analyzed.
Total RNA was isolated from frozen tissue using TRIZOL reagent (INVITROGEN, Carlsbad, Calif.) according to the manufacturer's protocol and purified using a RNEASY kit (QIAGEN, Valencia, Calif.). Total RNA was quantified by absorbance at 260 nm and integrity was confirmed by agarose gel electrophoresis and ethidium bromide staining of the 28S and 18S bands. […]

For the compound `O=[Se](O)O` [SS, sodium selenite], the “number of genes significantly changed” value turned out to be 283.
